Holding throughout (assay): AK assay 384-well format, Prestwick library screening
The subject of one assay is K. pneumoniae. The assay is classed as cell-based, Klebsiella pneumoniae. As to conditions: 50 μM final drug concentration; for fold induction at 50 µM: Klebsiella pneumoniae, 3 h; for AK-based Prestwick Library Screening Results, K. pneumoniae (fold increase in extracellular AK activity): cutoff for positive 3-fold increase.
Assay [1] has as its system A. baumannii strain 98-37-09. The assay is classed as cell-based, Acinetobacter baumannii. As to conditions: 50 μM final drug concentration; for fold induction at 50 µM: Acinetobacter baumannii, 983709, 3 h; for AK-based Prestwick Library Screening Results, A. baumannii (fold increase in extracellular AK activity): cutoff for positive 3-fold increase.
Assay [2] has as its system S. aureus strain USA300-0114. The format is cell-based, Staphylococcus aureus. As to conditions: 50 μM final drug concentration; for fold induction at 50 µM: Staphylococcus aureus, USA300, 3 h; for AK-based Prestwick Library Screening Results, S. aureus (fold increase in extracellular AK activity): cutoff for positive 3-fold increase.
The next assay has as its system E. cloacae. The format is cell-based, Enterobacter cloacae. The settings on record: 50 μM final drug concentration; for fold induction at 50 µM: Enterobacter cloacae, 3 h; for AK-based Prestwick Library Screening Results, E. cloacae (fold increase in extracellular AK activity): cutoff for positive 3-fold increase.
Another assay relates to E. coli. The format is cell-based, Escherichia coli. As to conditions: 50 μM final drug concentration; for fold induction at 50 µM: Escherichia coli, 3 h; for AK-based Prestwick Library Screening Results, E. coli (fold increase in extracellular AK activity): cutoff for positive 3-fold increase.
For the next assay, the system named is P. aeruginosa. The format is cell-based, Pseudomonas aeruginosa. As to conditions: 50 μM final drug concentration; for fold induction at 50 µM: Pseudomonas aeruginosa, 3 h; for AK-based Prestwick Library Screening Results, P. aeruginosa (fold increase in extracellular AK activity): cutoff for positive 3-fold increase.
The test system of the next assay is E. faecium. The format is cell-based, Enterococcus faecium. The settings on record: 50 μM final drug concentration; for fold induction at 50 µM: Enterococcus faecium, 3 h; for AK-based Prestwick Library Screening Results, E. faecium (fold increase in extracellular AK activity): cutoff for positive 3-fold increase.
[3] abbreviates: cutoff for positive-scoring molecules 3-fold increase, read-out: AK-based Prestwick Library Screening Results, K. pneumoniae (fold increase in extracellular AK activity).
Setting [4] is: cutoff for positive-scoring molecules 3-fold increase, read-out: AK-based Prestwick Library Screening Results, A. baumannii (fold increase in extracellular AK activity).
Where [5] appears, read: cutoff for positive-scoring molecules 3-fold increase, read-out: AK-based Prestwick Library Screening Results, S. aureus (fold increase in extracellular AK activity).
Setting [6] is: cutoff for positive-scoring molecules 3-fold increase, read-out: AK-based Prestwick Library Screening Results, E. cloacae (fold increase in extracellular AK activity).
Setting [7] is: cutoff for positive-scoring molecules 3-fold increase, read-out: AK-based Prestwick Library Screening Results, E. coli (fold increase in extracellular AK activity).
Where [8] appears, read: cutoff for positive-scoring molecules 3-fold increase, read-out: AK-based Prestwick Library Screening Results, P. aeruginosa (fold increase in extracellular AK activity).
The mark [9] stands for this setting: cutoff for positive-scoring molecules 3-fold increase, read-out: AK-based Prestwick Library Screening Results, E. faecium (fold increase in extracellular AK activity).

Structures are written as SMILES. Structures can show the parent of a compound that is named as a salt. Where two headings read alike, the source gives them in different places.

The results in this text go back to US10004701B2, “Methods and compositions for treating infection” (UNIVERSITY OF ROCHESTER, priority 2012, dated 2018).

Take `C=C1c2cccc(O)c2C(=O)C2=C(O)[C@]3(O)C(=O)C(C(N)=O)=C(O)[C@@H](N(C)C)[C@@H]3[C@@H](O)[C@H]12` [Methacycline hydrochloride]: the fold induction at 50 µM with K. pneumoniae (setting [3]) came to 0.2; in assay [1] (setting [4]), 4.2; in assay [2] (setting [5]), 1.9; in the assay with E. cloacae (setting [6]), 0.4; with E. coli (setting [7]) it was 3.2; in the assay with P. aeruginosa (setting [8]) it was 0.2. For the same compound, in the assay with E. faecium (setting [9]), the fold induction at 50 µM stood at 0.9.

Turning to `CC[N+](C)(CC)CCOC(=O)C1c2ccccc2Oc2ccccc21` [Methantheline bromide], the fold induction at 50 µM in the assay on K. pneumoniae (planktonic K. pneumoniae, positive cutoff 3-fold increase, read-out: AK-based Prestwick library screening result, K. pneumoniae (fold increase in extracellular AK activity)) was 0.8; in assay [1] (planktonic A. baumannii, positive cutoff 3-fold increase, read-out: AK-based Prestwick library screening result, A. baumannii (fold increase in extracellular AK activity)), 0.8; in assay [2] (planktonic S. aureus, positive cutoff 3-fold increase, read-out: AK-based Prestwick library screening result, S. aureus (fold increase in extracellular AK activity)), 0.7; in the assay on E. cloacae (planktonic E. cloacae, positive cutoff 3-fold increase, read-out: AK-based Prestwick library screening result, E. cloacae (fold increase in extracellular AK activity)) it was 1.1; in the assay on E. coli (planktonic E. coli, positive cutoff 3-fold increase, read-out: AK-based Prestwick library screening result, E. coli (fold increase in extracellular AK activity)), 0.9; with P. aeruginosa (planktonic P. aeruginosa, positive cutoff 3-fold increase, read-out: AK-based Prestwick library screening result, P. aeruginosa (fold increase in extracellular AK activity)), 0.9. Moreover, the fold induction at 50 µM with E. faecium (planktonic E. faecium, positive cutoff 3-fold increase, read-out: AK-based Prestwick library screening result, E. faecium (fold increase in extracellular AK activity)) turned out to be 0.9.

As for `CC(=O)/N=c1/sc(S(N)(=O)=O)nn1C` [Methazolamide], the fold induction at 50 µM in the assay with K. pneumoniae (planktonic, cutoff for positive-scoring molecules 3-fold increase, read-out: AK-based Prestwick Library Screening Results, K. pneumoniae (fold increase in extracellular AK activity)) came to 0.5; in assay [1] (planktonic, cutoff for positive-scoring molecules 3-fold increase, read-out: AK-based Prestwick Library Screening Results, A. baumannii (fold increase in extracellular AK activity)), 0.5; in assay [2] (planktonic, cutoff for positive-scoring molecules 3-fold increase, read-out: AK-based Prestwick Library Screening Results, S. aureus (fold increase in extracellular AK activity)), 0.6; with E. cloacae (planktonic, cutoff for positive-scoring molecules 3-fold increase, read-out: AK-based Prestwick Library Screening Results, E. cloacae (fold increase in extracellular AK activity)), 0.7; in the assay on E. coli (planktonic, cutoff for positive-scoring molecules 3-fold increase, read-out: AK-based Prestwick Library Screening Results, E. coli (fold increase in extracellular AK activity)), 0.5; in the assay with P. aeruginosa (planktonic, cutoff for positive-scoring molecules 3-fold increase, read-out: AK-based Prestwick Library Screening Results, P. aeruginosa (fold increase in extracellular AK activity)) it was 0.6. Also, the fold induction at 50 µM in the assay with E. faecium (planktonic, cutoff for positive-scoring molecules 3-fold increase, read-out: AK-based Prestwick Library Screening Results, E. faecium (fold increase in extracellular AK activity)) amounted to 1.5.

For `COC(=O)Nc1nc2ccc(SC(C)C)cc2[nH]1` [Methiazole], the “AK-based Prestwick library screening result, K. pneumoniae (fold increase in extracellular AK activity)” value in the assay with K. pneumoniae (planktonic K. pneumoniae, positive cutoff 3-fold increase) came to 0.4. For the same compound, the “AK-based Prestwick library screening result, A. baumannii (fold increase in extracellular AK activity)” value in assay [1] (planktonic A. baumannii, positive cutoff 3-fold increase) was 0.5. In addition, the “AK-based Prestwick library screening result, S. aureus (fold increase in extracellular AK activity)” value in assay [2] (planktonic S. aureus, positive cutoff 3-fold increase) was found to be 1.3. Besides, the “AK-based Prestwick library screening result, E. cloacae (fold increase in extracellular AK activity)” value with E. cloacae (planktonic E. cloacae, positive cutoff 3-fold increase) came out at 1.3. The “AK-based Prestwick library screening result, E. coli (fold increase in extracellular AK activity)” value with E. coli (planktonic E. coli, […]) amounted to 0.4. The “AK-based Prestwick library screening result, P. aeruginosa (fold increase in extracellular AK activity)” value with P. aeruginosa (planktonic P. aeruginosa, positive cutoff 3-fold increase) is 0.5. In addition, the “AK-based Prestwick library screening result, E. faecium (fold increase in extracellular AK activity)” value with E. faecium (planktonic E. faecium, positive cutoff 3-fold increase) is on record as 0.5.

Consider `Cn1cc[nH]c1=S` [Methimazole], for which the fold induction at 50 µM in the assay with K. pneumoniae (setting [3]) worked out at 1; in assay [1] (setting [4]) it was 1.4; in assay [2] (setting [5]), 1; in the assay with E. cloacae (setting [6]) it was 27.1; in the assay with E. coli (setting [7]), 1.2; in the assay with P. aeruginosa (setting [8]) it was 1. Also, the fold induction at 50 µM in the assay on E. faecium (setting [9]) was 0.9.

Regarding `CS(=N)(=O)CC[C@H](N)C(=O)O` (stereo partly drawn) [Methionine sulfoximine (L)], in the assay on K. pneumoniae (planktonic), the “AK-based Prestwick Library Screening Results, K. pneumoniae (fold increase in extracellular AK activity)” value is 0.9. For the same compound, in assay [1] (planktonic), the “AK-based Prestwick Library Screening Results, A. baumannii (fold increase in extracellular AK activity)” value amounted to 1.0. For the same compound, in assay [2] (planktonic), the “AK-based Prestwick Library Screening Results, S. aureus (fold increase in extracellular AK activity)” value was determined as 1.1. Moreover, the “AK-based Prestwick Library Screening Results, E. cloacae (fold increase in extracellular AK activity)” value in the assay with E. cloacae (planktonic) is on record as 1.5. For the same compound, the “AK-based Prestwick Library Screening Results, E. coli (fold increase in extracellular AK activity)” value with E. coli (planktonic) is on record as 1.3. The “AK-based Prestwick Library Screening Results, P. aeruginosa (fold increase in extracellular AK activity)” value in the assay with P. aeruginosa (planktonic) turned out to be 1.2. For the same compound, the “AK-based Prestwick Library Screening Results, E. faecium (fold increase in extracellular AK activity)” value in the assay with E. faecium (planktonic) turned out to be 1.0.

For `CSc1ccc2c(c1)C(N1CCN(C)CC1)Cc1ccccc1S2.O=C(O)/C=C\C(=O)O` (stereo not drawn) [Methiothepin maleate], the “AK-based Prestwick Library Screening Results, K. pneumoniae (fold increase in extracellular AK activity)” value in the assay with K. pneumoniae (planktonic) is 1.3. Moreover, the “AK-based Prestwick Library Screening Results, A. baumannii (fold increase in extracellular AK activity)” value in assay [1] (planktonic) stood at 1.5. Also, the “AK-based Prestwick Library Screening Results, S. aureus (fold increase in extracellular AK activity)” value in assay [2] (planktonic) was 1.3. In addition, in the assay with E. cloacae (planktonic), the “AK-based Prestwick Library Screening Results, E. cloacae (fold increase in extracellular AK activity)” value is given as 1.8. Further, the “AK-based Prestwick Library Screening Results, E. coli (fold increase in extracellular AK activity)” value in the assay on E. coli (planktonic) was 1.4. In addition, in the assay on P. aeruginosa (planktonic), the “AK-based Prestwick Library Screening Results, P. aeruginosa (fold increase in extracellular AK activity)” value amounted to 1.1. Moreover, in the assay with E. faecium (planktonic), the “AK-based Prestwick Library Screening Results, E. faecium (fold increase in extracellular AK activity)” value was 1.0.

`COc1ccccc1OCC(O)COC(N)=O` (stereo not drawn) [Methocarbamol]: the fold induction at 50 µM in the assay on K. pneumoniae (384-well format, cutoff for positive-scoring molecules 3-fold increase, read-out: AK-based Prestwick Library Screening Results, K. pneumoniae (increase in extracellular AK activity)) is 0.6; in assay [1] (384-well format, cutoff for positive-scoring molecules 3-fold increase, read-out: AK-based Prestwick Library Screening Results, A. baumannii (increase in extracellular AK activity)), 0.9; in assay [2] (384-well format, cutoff for positive-scoring molecules 3-fold increase, read-out: AK-based Prestwick Library Screening Results, S. aureus (increase in extracellular AK activity)) it was 0.8; in the assay on E. cloacae (384-well format, cutoff for positive-scoring molecules 3-fold increase, read-out: AK-based Prestwick Library Screening Results, E. cloacae (increase in extracellular AK activity)), 1; in the assay on E. coli (384-well format, cutoff for positive-scoring molecules 3-fold increase, read-out: AK-based Prestwick Library Screening Results, E. coli (increase in extracellular AK activity)), 0.9; in the assay with P. aeruginosa (384-well format, cutoff for positive-scoring molecules 3-fold increase, read-out: AK-based Prestwick Library Screening Results, P. aeruginosa (increase in extracellular AK activity)) it was 0.9. Besides, the fold induction at 50 µM in the assay with E. faecium (384-well format, cutoff for positive-scoring molecules 3-fold increase, read-out: AK-based Prestwick Library Screening Results, E. faecium (increase in extracellular AK activity)) turned out to be 0.9.

For the compound `CN(Cc1cnc2nc(N)nc(N)c2n1)c1ccc(C(=O)N[C@@H](CCC(=O)O)C(=O)O)cc1` [Methotrexate], the fold induction at 50 µM in the assay on K. pneumoniae (planktonic K. pneumoniae, 384-well, cutoff for positive-scoring molecules 3-fold increase, read-out: AK-based Prestwick Library Screening Results: K. pneumoniae (increase in extracellular AK activity)) is 0.8; in assay [1] (planktonic A. baumannii, 384-well, cutoff for positive-scoring molecules 3-fold increase, read-out: AK-based Prestwick Library Screening Results: A. baumannii (increase in extracellular AK activity)), 1; in assay [2] (planktonic S. aureus, 384-well, cutoff for positive-scoring molecules 3-fold increase, read-out: AK-based Prestwick Library Screening Results: S. aureus (increase in extracellular AK activity)) it was 0.9; in the assay on E. cloacae (planktonic E. cloacae, 384-well, cutoff for positive-scoring molecules 3-fold increase, read-out: AK-based Prestwick Library Screening Results: E. cloacae (increase in extracellular AK activity)), 1.3; with E. coli (planktonic E. coli, 384-well, […], read-out: AK-based Prestwick Library Screening Results: E. coli (increase in extracellular AK activity)) it was 1.1; with P. aeruginosa (planktonic P. aeruginosa, 384-well, cutoff for positive-scoring molecules 3-fold increase, read-out: AK-based Prestwick Library Screening Results: P. aeruginosa (increase in extracellular AK activity)), 1. The fold induction at 50 µM in the assay on E. faecium (planktonic E. faecium, 384-well, cutoff for positive-scoring molecules 3-fold increase, read-out: AK-based Prestwick Library Screening Results: E. faecium (increase in extracellular AK activity)) is 0.8.
